Laboratory results reported in ChEMBL document CHEMBL1145869, “Enantiomerically pure tetrahydroquinoline derivatives as in vivo potent antagonists of the glycine binding site associated to the NMDA receptor” (Bioorg Med Chem Lett, 2003).
Each block holds one compound with its values, some of them ahead of it.

Columns and labels:
Glutamate NMDA receptor = test: In vitro ability to inhibit the binding of [3H]glycine to glycine binding site of N-methyl-D-aspartate glutamate receptor in rat synaptic membranes; type: cell membranes, Membrane
Rattus norvegicus [1] = species on record: Rattus norvegicus; test: Area under curve in rat plasma; type: ADME, organism-based; conditions: in vivo
Mus musculus = test: In vivo neuroprotective activity in the NMDA-induced convulsions in mice after iv administration; type: functional
Rattus norvegicus [2] = test: In vivo neuroprotective activity in the MCAo model of rats 6 hr after occlusion(post-ischemia) by iv administration at a dose of 0.3 mg/kg; type: functional
Rattus norvegicus [3] = test: In vivo neuroprotective activity in the MCAo model of rats 6 hr after occlusion(post-ischemia) by iv administration at a dose of 1 mg/kg; type: functional
Rattus norvegicus [4] = test: In vivo neuroprotective activity as reduction of size of gross brain damage in the MCAo model of rats 6 hr after occlusion(post-ischemia) by iv administration at a dose of 0.3 mg/kg; type: functional
Rattus norvegicus [5] = test: In vivo neuroprotective activity as reduction of size of gross brain damage in the MCAo model of rats 6 hr after occlusion(post-ischemia) by iv administration at a dose of 1 mg/kg; type: functional
Rattus norvegicus [6] = test: In vivo neuroprotective activity in the MCAo model of rats 5 min prior to occlusion(pre-ischemia) by iv administration at a dose of 0.01 mg/kg; type: functional
Rattus norvegicus [7] = test: In vivo neuroprotective activity in the MCAo model of rats 5 min prior to occlusion(pre-ischemia) by iv administration at a dose of 0.1 mg/kg; type: functional
Rattus norvegicus [8] = test: In vivo neuroprotective activity in the MCAo model of rats 5 min prior to occlusion(pre-ischemia) by iv administration at a dose of 10 mg/kg; type: functional
Rattus norvegicus [9] = test: In vivo neuroprotective activity in the MCAo model of rats 5 min prior to occlusion(pre-ischemia) by iv administration at a dose of 1 mg/kg; type: functional
Rattus norvegicus [10] = test: In vivo neuroprotective activity as reduction of size of gross brain damage in the MCAo model of rats 5 min prior to occlusion(pre-ischemia) by iv administration at a dose of 0.01 mg/kg; type: functional
Rattus norvegicus [11] = test: In vivo neuroprotective activity as reduction of size of gross brain damage in the MCAo model of rats 5 min prior to occlusion(pre-ischemia) by iv administration at a dose of 0.1 mg/kg; type: functional
Rattus norvegicus [12] = test: In vivo neuroprotective activity as reduction of size of gross brain damage in the MCAo model of rats 5 min prior to occlusion(pre-ischemia) by iv administration at a dose of 10 mg/kg; type: functional
Rattus norvegicus [13] = test: In vivo neuroprotective activity as reduction of size of gross brain damage in the MCAo model of rats 5 min prior to occlusion(pre-ischemia) by iv administration at a dose of 1 mg/kg; type: functional

SMILES: CC(=O)NCc1ccc(NC(=O)/C=C2\CC(C(=O)O)Nc3cc(Cl)cc(Cl)c32)cc1 (stereo not drawn)
Log Ki (Glutamate NMDA receptor): -8.32

SMILES: CC(C)C(=O)NCc1ccc(NC(=O)/C=C2\CC(C(=O)O)Nc3cc(Cl)cc(Cl)c32)cc1 (stereo not drawn)
Log Ki (Glutamate NMDA receptor): -7.78

SMILES: NC(=O)/C=C/c1ccc(NC(=O)/C=C2\CC(C(=O)O)Nc3cc(Cl)cc(Cl)c32)cc1 (stereo not drawn)
Log Ki (Glutamate NMDA receptor): -8.15

SMILES: O=C(/C=C1\CC(C(=O)O)Nc2cc(Cl)cc(Cl)c21)Nc1ccccc1 (stereo not drawn)
Log Ki (Glutamate NMDA receptor): -8.18

SMILES: N#CCc1ccc(NC(=O)/C=C2\CC(C(=O)O)Nc3cc(Cl)cc(Cl)c32)cc1 (stereo not drawn)
Log Ki (Glutamate NMDA receptor): -8.15

SMILES: N#C/C=C/c1ccc(NC(=O)/C=C2\CC(C(=O)O)Nc3cc(Cl)cc(Cl)c32)cc1 (stereo not drawn)
Log Ki (Glutamate NMDA receptor): -7.73

SMILES: O=C(O)Cc1ccc(NC(=O)/C=C2\CC(C(=O)O)Nc3cc(Cl)cc(Cl)c32)cc1 (stereo not drawn)
Log Ki (Glutamate NMDA receptor): -7.72

SMILES: O=C(/C=C/c1c(C(=O)O)[nH]c2cc(Cl)cc(Cl)c12)Nc1ccccc1 [GAVESTINEL]
Log Ki (Glutamate NMDA receptor): -8.52

The next lines start with results.

Log Ki (Glutamate NMDA receptor): -8.18
SMILES: CS(=O)(=O)Nc1ccc(NC(=O)/C=C2\CC(C(=O)O)Nc3cc(Cl)cc(Cl)c32)cc1 (stereo not drawn)

Log Ki (Glutamate NMDA receptor): -7.76
SMILES: Nc1ccc(NC(=O)/C=C2\CC(C(=O)O)Nc3cc(Cl)cc(Cl)c32)cc1 (stereo not drawn)

Log Ki (Glutamate NMDA receptor): -8.17
SMILES: NS(=O)(=O)Nc1ccc(NC(=O)/C=C2\CC(C(=O)O)Nc3cc(Cl)cc(Cl)c32)cc1 (stereo not drawn)

Log Ki (Glutamate NMDA receptor): -8.38
SMILES: NC(=O)NCc1ccc(NC(=O)/C=C2\CC(C(=O)O)Nc3cc(Cl)cc(Cl)c32)cc1 (stereo not drawn)

Log Ki (Glutamate NMDA receptor): -8.18
SMILES: NC(=O)Cc1ccc(NC(=O)/C=C2\CC(C(=O)O)Nc3cc(Cl)cc(Cl)c32)cc1 (stereo not drawn)

Log Ki (Glutamate NMDA receptor): -8.18
SMILES: COCC(=O)Nc1ccc(NC(=O)/C=C2\CC(C(=O)O)Nc3cc(Cl)cc(Cl)c32)cc1 (stereo not drawn)

AUC (Rattus norvegicus [1]): 3440 ng·h/mL | Log Ki (Glutamate NMDA receptor): -8.79
SMILES: CC(=O)Nc1ccc(NC(=O)/C=C2\CC(C(=O)O)Nc3cc(Cl)cc(Cl)c32)cc1 (single isomer, unassigned; (+))
ED50 (Mus musculus): 0.31 mg/kg | Infarct volume (Rattus norvegicus [2]): 55.6 mm**3 | Infarct volume (Rattus norvegicus [3]): 44.4 mm**3 | Reduction (Rattus norvegicus [4]): 26.3% | Reduction (Rattus norvegicus [5]): 41.2%

AUC (Rattus norvegicus [1]): 19800 ng·h/mL | Log Ki (Glutamate NMDA receptor): -7.3
SMILES: CC(=O)Nc1ccc(NC(=O)/C=C2\CC(C(=O)O)Nc3cc(Cl)cc(Cl)c32)cc1 (single isomer, unassigned; (-))
ED50 (Mus musculus): 1.52 mg/kg | Infarct volume (Rattus norvegicus [2]): 58.7 mm**3 | Infarct volume (Rattus norvegicus [3]): 42.9 mm**3 | Reduction (Rattus norvegicus [4]): 22.2% | Reduction (Rattus norvegicus [5]): 43.2%

AUC (Rattus norvegicus [1]): 11500 ng·h/mL | Log Ki (Glutamate NMDA receptor): -8.52
SMILES: CC(=O)Nc1ccc(NC(=O)/C=C2\CC(C(=O)O)Nc3cc(Cl)cc(Cl)c32)cc1 (stereo in doubt; 3c)
ED50 (Mus musculus): 0.2 mg/kg | Infarct volume (Rattus norvegicus [6]): 64.3 mm3 | Infarct volume (Rattus norvegicus [7]): 47.8 mm3 | Infarct volume (Rattus norvegicus [8]): 39.7 mm3 | Infarct volume (Rattus norvegicus [9]): 41.8 mm3 | Infarct volume (Rattus norvegicus [2]): 36.6 mm**3 | Infarct volume (Rattus norvegicus [3]): 29.9 mm**3 | Reduction (Rattus norvegicus [10]): 12.7% | Reduction (Rattus norvegicus [11]): 35.1% | Reduction (Rattus norvegicus [12]): 46.1% | Reduction (Rattus norvegicus [13]): 43.3% | Reduction (Rattus norvegicus [4]): 50.3% | Reduction (Rattus norvegicus [5]): 59.4%
